The values that follow come from patent publication US20100003250A1, “(2-ARYL-7H-PYRROLO[2,3-D]PYRIMIDIN-4-YL)MORPHOLINE COMPOUNDS, THEIR USE AS MTOR KINASE AND PI3 KINASE INHIBITORS, AND THEIR SYNTHESES” (Wyeth, priority 2008, published 2010).

Common to all, as to assay type: biochemical
In one assay the target is T1, mTOR Kinase (FLAG-TOR) (Homo sapiens, UniProt P42345).
T1 construct: FLAG
Description: mTOR kinase assay, purified enzyme, DELFIA format. The following applies: 100 μM ATP, 1.25 μM His6-S6K; read-out: mTOR Kinase Median IC50.

In a further assay the target is PI3Kγ (Homo sapiens, UniProt P48736). As to the kind of experiment: PI3K-gamma fluorescence polarization assay. Particulars: 20 μM PIP2, 25 μM ATP; read-out: PI3Kγ Median IC50. Put shortly: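 Enzyme preincubated with compound in 20 mM HEPES pH 7.5, 2 mM MgCl2, 0.05% CHAPS, 0.01% βME; reaction started with substrate giving 20 μM diC8 PIP2 and 25 μM ATP final, run 30-60 min at room temperature. Stopped with TAMRA-labelled PIP3 detector probe plus GST-GRP; PIP3 formation read by fluorescence polarization after 90-110 min.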
Background: In fluorescence polarisation assays a small probe gives low polarisation when free and higher when bound to something large.

For a further assay, the target named is PI3Kα (Homo sapiens, UniProt P42336). Description: PI3K-alpha fluorescence polarization assay. Particulars: 20 μM PIP2, 25 μM ATP; read-out: PI3Kα Median IC50.

Each structure is given as a SMILES string.

Chain of PI3Kα (P42336 whole entry, species assumed): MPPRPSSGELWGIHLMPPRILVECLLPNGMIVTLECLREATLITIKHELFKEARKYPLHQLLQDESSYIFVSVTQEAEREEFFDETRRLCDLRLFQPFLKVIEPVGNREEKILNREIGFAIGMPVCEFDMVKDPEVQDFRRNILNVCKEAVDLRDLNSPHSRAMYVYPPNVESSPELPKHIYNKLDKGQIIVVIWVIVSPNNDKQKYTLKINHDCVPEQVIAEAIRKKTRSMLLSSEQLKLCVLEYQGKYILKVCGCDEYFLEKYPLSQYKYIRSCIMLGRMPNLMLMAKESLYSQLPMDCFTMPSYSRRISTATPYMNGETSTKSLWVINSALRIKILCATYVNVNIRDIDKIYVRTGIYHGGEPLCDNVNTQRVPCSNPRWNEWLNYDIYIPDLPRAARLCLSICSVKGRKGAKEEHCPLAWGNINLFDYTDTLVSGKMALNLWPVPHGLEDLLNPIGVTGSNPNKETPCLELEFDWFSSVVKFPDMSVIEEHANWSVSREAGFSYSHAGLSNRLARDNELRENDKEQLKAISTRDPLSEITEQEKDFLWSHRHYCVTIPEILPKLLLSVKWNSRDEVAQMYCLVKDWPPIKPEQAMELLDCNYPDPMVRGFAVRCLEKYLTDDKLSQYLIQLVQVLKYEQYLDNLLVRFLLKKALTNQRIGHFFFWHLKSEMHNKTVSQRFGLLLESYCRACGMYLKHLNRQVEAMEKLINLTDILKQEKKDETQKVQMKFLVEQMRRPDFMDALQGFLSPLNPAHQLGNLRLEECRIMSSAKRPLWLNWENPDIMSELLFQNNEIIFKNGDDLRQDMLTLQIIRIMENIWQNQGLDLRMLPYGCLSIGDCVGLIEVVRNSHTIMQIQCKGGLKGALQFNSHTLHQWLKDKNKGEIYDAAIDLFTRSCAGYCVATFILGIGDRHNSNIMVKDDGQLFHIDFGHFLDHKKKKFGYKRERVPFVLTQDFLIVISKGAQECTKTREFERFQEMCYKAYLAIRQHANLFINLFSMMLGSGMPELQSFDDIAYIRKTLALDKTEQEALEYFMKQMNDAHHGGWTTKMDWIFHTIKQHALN
Chain of PI3Kα (P27986 whole entry partner, species assumed): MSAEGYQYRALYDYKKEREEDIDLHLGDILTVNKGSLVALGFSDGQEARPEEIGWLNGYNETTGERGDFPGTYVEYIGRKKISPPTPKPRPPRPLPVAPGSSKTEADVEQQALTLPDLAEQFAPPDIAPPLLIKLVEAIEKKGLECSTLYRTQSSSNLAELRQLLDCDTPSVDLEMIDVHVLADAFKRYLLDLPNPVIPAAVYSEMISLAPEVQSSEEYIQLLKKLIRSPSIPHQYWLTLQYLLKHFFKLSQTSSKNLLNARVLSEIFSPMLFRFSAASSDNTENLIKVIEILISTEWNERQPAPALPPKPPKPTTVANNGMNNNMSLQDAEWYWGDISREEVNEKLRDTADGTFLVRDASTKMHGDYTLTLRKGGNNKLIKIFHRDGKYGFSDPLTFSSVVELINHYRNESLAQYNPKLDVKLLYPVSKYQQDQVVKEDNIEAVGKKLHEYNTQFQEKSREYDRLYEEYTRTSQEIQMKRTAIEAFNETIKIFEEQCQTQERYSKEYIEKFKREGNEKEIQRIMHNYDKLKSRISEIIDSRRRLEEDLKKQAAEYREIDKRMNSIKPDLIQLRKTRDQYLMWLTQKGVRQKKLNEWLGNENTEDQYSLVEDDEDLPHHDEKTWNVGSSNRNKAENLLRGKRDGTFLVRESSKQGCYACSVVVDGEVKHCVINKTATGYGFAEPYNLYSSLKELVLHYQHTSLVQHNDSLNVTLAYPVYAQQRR
Chain of PI3Kγ (P48736 whole entry, species assumed): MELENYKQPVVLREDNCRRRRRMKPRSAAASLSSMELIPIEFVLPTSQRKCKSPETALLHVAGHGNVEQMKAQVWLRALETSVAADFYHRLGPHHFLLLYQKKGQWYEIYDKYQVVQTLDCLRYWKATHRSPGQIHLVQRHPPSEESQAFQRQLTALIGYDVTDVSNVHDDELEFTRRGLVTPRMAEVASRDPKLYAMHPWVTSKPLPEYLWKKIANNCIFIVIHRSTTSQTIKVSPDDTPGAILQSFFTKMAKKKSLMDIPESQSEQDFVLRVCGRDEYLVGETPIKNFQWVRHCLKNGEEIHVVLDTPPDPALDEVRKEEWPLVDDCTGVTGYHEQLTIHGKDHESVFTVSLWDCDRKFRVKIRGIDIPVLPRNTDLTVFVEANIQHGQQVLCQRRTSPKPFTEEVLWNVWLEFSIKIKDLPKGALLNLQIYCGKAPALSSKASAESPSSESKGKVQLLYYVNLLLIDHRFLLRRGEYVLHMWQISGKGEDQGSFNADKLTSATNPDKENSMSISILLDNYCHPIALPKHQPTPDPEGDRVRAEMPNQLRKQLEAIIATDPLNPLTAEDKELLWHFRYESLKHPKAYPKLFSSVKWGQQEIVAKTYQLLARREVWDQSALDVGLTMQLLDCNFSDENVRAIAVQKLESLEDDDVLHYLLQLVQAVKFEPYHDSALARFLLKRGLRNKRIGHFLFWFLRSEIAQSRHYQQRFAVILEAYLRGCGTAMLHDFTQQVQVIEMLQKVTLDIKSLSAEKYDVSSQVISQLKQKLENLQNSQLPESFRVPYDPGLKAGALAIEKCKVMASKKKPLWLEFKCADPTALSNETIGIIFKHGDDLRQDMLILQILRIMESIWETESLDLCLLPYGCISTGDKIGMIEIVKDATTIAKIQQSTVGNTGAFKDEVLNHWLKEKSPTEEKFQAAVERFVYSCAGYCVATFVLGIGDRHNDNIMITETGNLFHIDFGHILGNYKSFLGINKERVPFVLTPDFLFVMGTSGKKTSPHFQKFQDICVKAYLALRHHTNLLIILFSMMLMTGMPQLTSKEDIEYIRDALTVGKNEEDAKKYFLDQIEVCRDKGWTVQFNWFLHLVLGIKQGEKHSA

In general, IC50 refers to the concentration that gives 50% inhibition. For `CC(C)(C)OC(=O)N1CCC(n2ccc3c(N4CCOCC4)nc(-c4ccc(NC(=O)Nc5cccnc5)cc4)nc32)CC1` [Compound 94, tert-butyl 4-(4-morpholin-4-yl-2-{4-[(pyridin-3-ylcarbamoyl)amino]phenyl}-7H-pyrrolo[2,3-d]pyrimidin-7-yl)piperidine-1-carboxylate], the IC50 was 1350 nM at mTOR Kinase (FLAG-TOR), above 10000 nM at PI3Kγ and 11000 nM on PI3Kα.

Turning to `NC(=O)Nc1cccc(Cn2ccc3c(N4CCOCC4)nc(-c4ccc(NC(=O)Nc5ccncc5)cc4)nc32)c1` [Compound 20, 1-(4-{7-[3-(carbamoylamino)benzyl]-4-morpholin-4-yl-7H-pyrrolo[2,3-d]pyrimidin-2-yl}phenyl)-3-pyridin-4-ylurea], the IC50 at mTOR Kinase (FLAG-TOR) worked out at 3.5 nM; at PI3Kγ, 196 nM; on PI3Kα, 61 nM.

For `O=C(Nc1ccncc1)Nc1ccc(-c2nc(N3CCOCC3)c3ccn(CC4NC(=O)NC4=O)c3n2)cc1` (stereo not drawn) [Compound 35, 1-(4-{7-[(2,5-dioxoimidazolidin-4-yl)methyl]-4-morpholin-4-yl-7H-pyrrolo[2,3-d]pyrimidin-2-yl}phenyl)-3-pyridin-4-ylurea], the IC50 at mTOR Kinase (FLAG-TOR) turned out to be 1.55 nM; on PI3Kγ it was 100 nM; at PI3Kα, 12 nM.

As to `CN(C)CCCNC(=O)Nc1ccc(-c2nc(N3CCOCC3)c3ccn(CCN(C)C)c3n2)cc1` [Compound 15, 1-(4-{7-[2-(dimethylamino)ethyl]-4-morpholin-4-yl-7H-pyrrolo[2,3-d]pyrimidin-2-yl}phenyl)-3-[3-(dimethylamino)propyl]urea], the IC50 at mTOR Kinase (FLAG-TOR) came to 3400 nM; at PI3Kγ, 4360 nM; on PI3Kα it was 162 nM.

Regarding `CC(C)(C)NCCn1ccc2c(N3CCOCC3)nc(-c3ccc(NC(=O)Nc4ccncc4)cc3)nc21` [Compound 31, 1-(4-{7-[2-(tert-butylamino)ethyl]-4-morpholin-4-yl-7H-pyrrolo[2,3-d]pyrimidin-2-yl}phenyl)-3-pyridin-4-ylurea], the values for the IC50 at mTOR Kinase (FLAG-TOR), on PI3Kγ and at PI3Kα were 25.5 nM, 404 nM and 86 nM, respectively.

Turning to `O=C(Nc1ccc(-c2nc(N3CCOCC3)c3ccn(CC(F)(F)F)c3n2)cc1)OCCO` [Compound 43, 2-hydroxyethyl{4-[4-morpholin-4-yl-7-(2,2,2-trifluoroethyl)-7H-pyrrolo[2,3-d]pyrimidin-2-yl]phenyl}carbamate], the IC50 came to 3.9 nM at mTOR Kinase (FLAG-TOR), 1720 nM on PI3Kγ and 570 nM on PI3Kα.

As to `CNc1nc2cc(-c3nc(N4CCOCC4)c4ccn(CC(F)(F)F)c4n3)ccc2[nH]1` [Compound 48, N-methyl-5-[4-morpholin-4-yl-7-(2,2,2-trifluoroethyl)-7H-pyrrolo[2,3-d]pyrimidin-2-yl]-1H-benzimidazol-2-amine], the IC50 on mTOR Kinase (FLAG-TOR) was 340 nM; at PI3Kγ, 3660 nM; at PI3Kα it was 1200 nM.

For the compound `O=C(Nc1ccc(-c2nc(N3CCOCC3)c3ccn(CC(F)(F)F)c3n2)cc1)Nc1cccnc1` [Compound 37, 1-{4-[4-morpholin-4-yl-7-(2,2,2-trifluoroethyl)-7H-pyrrolo[2,3-d]pyrimidin-2-yl]phenyl}-3-pyridin-3-ylurea], the IC50 on mTOR Kinase (FLAG-TOR) amounted to 1.09 nM; on PI3Kγ, 97 nM; on PI3Kα, 26 nM.

For `CCn1ccc2c(N3CCOCC3)nc(-c3ccc(NC(=O)Nc4ccc(C(=O)N5CCC(N6CCCC6)CC5)cc4)cc3)nc21` [Compound 69, 1-[4-(7-ethyl-4-morpholin-4-yl-7H-pyrrolo[2,3-d]pyrimidin-2-yl)phenyl]-3-{4-[(4-pyrrolidin-1-ylpiperidin-1-yl)carbonyl]phenyl}urea], the IC50 at mTOR Kinase (FLAG-TOR) is 0.8 nM; at PI3Kγ, 24 nM; at PI3Kα, 2.1 nM.

Consider `CCn1ccc2c(N3CCOCC3)nc(-c3ccc(NC(=O)Nc4ccc(C(=O)N5C[C@@H](C)N[C@@H](C)C5)cc4)cc3)nc21` [Compound 64, 1-(4-{[(3R,5S)-3,5-dimethylpiperazin-1-yl]carbonyl}phenyl)-3-[4-(7-ethyl-4-morpholin-4-yl-7H-pyrrolo[2,3-d]pyrimidin-2-yl)phenyl]urea], for which the values for the IC50 on mTOR Kinase (FLAG-TOR), on PI3Kγ and on PI3Kα were 1.8 nM, 13 nM and below 1.7 nM, respectively.

Turning to `O=C(Nc1ccncc1)Nc1ccc(-c2nc(N3CCOCC3)c3ccn(CCNc4ccc(F)cc4)c3n2)cc1` [Compound 25, 1-[4-(7-{2-[(4-fluorophenyl)amino]ethyl}-4-morpholin-4-yl-7H-pyrrolo[2,3-d]pyrimidin-2-yl)phenyl]-3-pyridin-4-ylurea], the values for the IC50 on mTOR Kinase (FLAG-TOR), at PI3Kγ and at PI3Kα were 33 nM, 418 nM and 41 nM, respectively.

With `CCn1ccc2c(N3CCOCC3)nc(-c3ccc(NC(=O)Nc4ccc(C(=O)N5CCN(C(C)C)CC5)cc4)cc3)nc21` [Compound 91, 1-[4-(7-ethyl-4-morpholin-4-yl-7H-pyrrolo[2,3-d]pyrimidin-2-yl)phenyl]-3-(4-{[4-(1-methylethyl)piperazin-1-yl]carbonyl}phenyl)urea], the IC50 on mTOR Kinase (FLAG-TOR) was determined as 0.73 nM; at PI3Kγ it was 50 nM; on PI3Kα, 4 nM.

Regarding `CN(C)CCNC(=O)Nc1ccc(-c2nc(N3CCOCC3)c3ccn(CCN(C)C)c3n2)cc1` [Compound 14, 1-[2-(dimethylamino)ethyl]-3-(4-{7-[2-(dimethylamino)ethyl]-4-morpholin-4-yl-7H-pyrrolo[2,3-d]pyrimidin-2-yl}phenyl)urea], the IC50 on mTOR Kinase (FLAG-TOR) is 2150 nM; on PI3Kγ, 554 nM; at PI3Kα, 78 nM.

Take `NC(=O)Nc1cccc(Cn2ccc3c(N4CCOCC4)nc(-c4cccc(CO)c4)nc32)c1` [Compound 19, 1-[3-({2-[3-(hydroxymethyl)phenyl]-4-morpholin-4-yl-7H-pyrrolo[2,3-d]pyrimidin-7-yl}methyl)phenyl]urea]: the IC50 at mTOR Kinase (FLAG-TOR) is 435 nM; on PI3Kγ it was 868 nM; on PI3Kα, 99 nM.

As to `O=C(Nc1cccnc1)Nc1nc2cc(-c3nc(N4CCOCC4)c4ccn(CC(F)(F)F)c4n3)ccc2[nH]1` [Compound 46, 1-{5-[4-morpholin-4-yl-7-(2,2,2-trifluoroethyl)-7H-pyrrolo[2,3-d]pyrimidin-2-yl]-1H-benzimidazol-2-yl}-3-pyridin-3-ylurea], the IC50 came out at 3.4 nM on mTOR Kinase (FLAG-TOR), 104 nM on PI3Kγ and 14 nM at PI3Kα.

With `CN1CCN(C(=O)c2ccc(NC(=O)Nc3ccc(-c4nc(N5CCOCC5)c5ccn(CC(F)(F)F)c5n4)cc3)cc2)CC1` [Compound 54, 1-{4-[(4-methylpiperazin-1-yl)carbonyl]phenyl}-3-{4-[4-morpholin-4-yl-7-(2,2,2-trifluoroethyl)-7H-pyrrolo[2,3-d]pyrimidin-2-yl]phenyl}urea], the IC50 at mTOR Kinase (FLAG-TOR) turned out to be 1.1 nM; on PI3Kγ, 16 nM; on PI3Kα, 1.9 nM.

On to `CCn1ccc2c(N3CCOCC3)nc(-c3ccc(NC(=O)Nc4ccc(C(=O)N5CCN(C6CCCC6)CC5)cc4)cc3)nc21` [Compound 73, 1-{4-[(4-cyclopentylpiperazin-1-yl)carbonyl]phenyl}-3-[4-(7-ethyl-4-morpholin-4-yl-7H-pyrrolo[2,3-d]pyrimidin-2-yl)phenyl]urea], for which the 50% inhibitory concentration (IC50) was 3.35 nM on mTOR Kinase (FLAG-TOR), 35 nM at PI3Kγ and 6.5 nM at PI3Kα.

For `CC(C)n1ccc2c(N3CCOCC3)nc(-c3ccc(NC(=O)Nc4ccc(OCCN(C)C)cc4)cc3)nc21` [Compound 81, 1-{4-[2-(dimethylamino)ethoxy]phenyl}-3-[4-(7-isopropyl-4-morpholin-4-yl-7H-pyrrolo[2,3-d]pyrimidin-2-yl)phenyl]urea], the IC50 was found to be 2.95 nM at mTOR Kinase (FLAG-TOR), 219 nM at PI3Kγ and 34 nM on PI3Kα.

With `CN(C)CCn1ccc2c(N3CCOCC3)nc(-c3ccc(N)cc3)nc21` [Compound 8, 4-{7-[2-(dimethylamino)ethyl]-4-morpholin-4-yl-7H-pyrrolo[2,3-d]pyrimidin-2-yl}aniline], the results for the IC50 on mTOR Kinase (FLAG-TOR), on PI3Kγ and on PI3Kα were above 3750 nM, above 10000 nM and 2980 nM, respectively.

As for `CN(C)CCn1cc(C(=O)Nc2cccnc2)c2c(N3CCOCC3)nc(-c3ccc(NC(=O)Nc4cccnc4)cc3)nc21` [Compound 10, 7-[2-(dimethylamino)ethyl]-4-morpholin-4-yl-N-pyridin-3-yl-2-{4-[(pyridin-3-ylcarbamoyl)amino]phenyl}-7H-pyrrolo[2,3-d]pyrimidine-5-carboxamide], the IC50 was found to be 0.88 nM on mTOR Kinase (FLAG-TOR), 72 nM at PI3Kγ and 16 nM on PI3Kα.

On to `CCn1ccc2c(N3CCOCC3)nc(-c3ccc(NC(=O)Nc4ccc(C(=O)NCCN5CCCCC5)cc4)cc3)nc21` [Compound 68, 4-({[4-(7-ethyl-4-morpholin-4-yl-7H-pyrrolo[2,3-d]pyrimidin-2-yl)phenyl]carbamoyl}amino)-N-(2-piperidin-1-ylethyl)benzamide], for which the IC50 on mTOR Kinase (FLAG-TOR) came out at 0.91 nM; at PI3Kγ, 61 nM; at PI3Kα it was 4 nM.

For `O=C(Nc1ccc(C(=O)NCCN2CCCCC2)cc1)Nc1ccc(-c2nc(N3CCOCC3)c3ccn(CC(F)(F)F)c3n2)cc1` [Compound 56, 4-[({4-[4-morpholin-4-yl-7-(2,2,2-trifluoroethyl)-7H-pyrrolo[2,3-d]pyrimidin-2-yl]phenyl}carbamoyl)amino]-N-(2-piperidin-1-ylethyl)benzamide], the half-inhibitory concentration (IC50) on mTOR Kinase (FLAG-TOR) stood at 0.53 nM; at PI3Kγ it was 40 nM; at PI3Kα, 2.6 nM.

In the case of `CC(C)n1ccc2c(N3CCOCC3)nc(-c3ccc(NC(=O)Nc4ccc(C(=O)O)cc4)cc3)nc21` [Compound 90, 4-({[4-(7-isopropyl-4-morpholin-4-yl-7H-pyrrolo[2,3-d]pyrimidin-2-yl)phenyl]carbamoyl}amino)benzoic acid], the results for the IC50 at mTOR Kinase (FLAG-TOR), on PI3Kγ and on PI3Kα were 0.81 nM, 151 nM and 25.7 nM, respectively.
